Assay results taken from PubChem BioAssay (NCI).
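1) Cells in 96-well plates. 2) Compound, 48 h, 5 concentrations. 3) Linear interpolation between surrounding doses. 4) Unreached endpoint = highest concentration. TGI marks complete inhibition of growth.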

Experiments:
Experiment in all cases: inhibition of tumour cell growth, NCI panel, 48 h
NCI-H460 lung = tested on: NCI-H460 lung
RPMI-8226 leukemia = tested on: RPMI-8226 leukemia
UO-31 renal = tested on: UO-31 renal
HOP-92 NSCLC = tested on: HOP-92 NSCLC
OVCAR-8 ovarian = tested on: OVCAR-8 ovarian
SNB-75 CNS = tested on: SNB-75 CNS
U251 CNS = tested on: U251 CNS
SNB-19 CNS = tested on: SNB-19 CNS
K-562 leukemia = tested on: K-562 leukemia
DU-145 prostate = tested on: DU-145 prostate

Structure (SMILES) | TGI (NCI-H460 lung) | TGI (RPMI-8226 leukemia) | TGI (UO-31 renal) | TGI (HOP-92 NSCLC) | TGI (OVCAR-8 ovarian) | TGI (SNB-75 CNS) | TGI (U251 CNS) | TGI (SNB-19 CNS) | TGI (K-562 leukemia) | TGI (DU-145 prostate)
CCC(COC(=O)CC[C@@H](NC(=O)C(C)NC(=O)C(C)OC1C(O)C(CO)OC(OCc2ccccc2)C1NC(C)=O)C(N)=O)NC1c2ccccc2Nc2cccc([N+](=O)[O-])c21 (stereo partly drawn) | > 100 µM | > 100 µM | > 100 µM | > 100 µM | > 100 µM | > 100 µM | > 100 µM | > 100 µM | > 100 µM | 
C#CCNC(=O)NCCCCC(NC(=O)OCc1ccccc1)C(=O)OCc1ccccc1 (stereo not drawn) | > 100 µM | 45.9 µM | > 72.3 µM | > 100 µM | > 100 µM | > 100 µM | > 100 µM | > 100 µM | > 100 µM | 
C=C1[C@@](C)([C@@H]2CCCS2)[C@H]2C(C)=C[C@]1(C)n1c(=O)n(-c3ccccc3)c(=O)n12 | > 100 µM | > 100 µM | > 100 µM |  |  | > 100 µM | > 100 µM | > 100 µM |  | > 100 µM
CCCc1c(C(=O)OCC)[nH]c(-c2ccc(-c3[nH]c(C(=O)OCC)c(CCC)c3C(=O)OCC)s2)c1C(=O)OCC | > 100 µM | > 100 µM | > 100 µM | 85.2 µM | > 100 µM | 58 µM | > 100 µM | > 100 µM | > 100 µM | 
CCOC(=O)C(C)Sc1nnc(COc2ccccc2OC)n1-c1ccccc1 (stereo not drawn) | 32.2 µM | 59.9 µM | > 100 µM | > 100 µM | > 100 µM | > 100 µM | > 100 µM | > 100 µM | > 100 µM | 
CCOC(=O)c1cc2c(OCc3ccccc3)c(OC)cc3c2c(n1)N(c1ccc(OC)cc1)C(C)C3 (stereo not drawn) | > 50 µM | > 50 µM | > 50 µM | 42.9 µM | > 50 µM | > 50 µM | > 50 µM | > 50 µM | > 50 µM | 
CCCCCCCCCC(=O)N[C@@H](c1ccco1)[C@@H](O)C(=O)O[C@H]1C[C@@]2(O)[C@@H](OC(=O)c3ccccc3)[C@@H]3[C@]4(OC(C)=O)CO[C@@H]4C[C@H](O)[C@@]3(C)C(=O)[C@H](OC(C)=O)C(=C1C)C2(C)C | 8.9 µM | 0.0483 µM | 12.7 µM | 21.2 µM | 11 µM |  | 2.34 µM | > 30.5 µM | > 50 µM | 
O=C1CC(C(CC(=O)c2ccccc2)c2ccccc2)C(=O)c2ccccc2N1 (stereo not drawn) | > 100 µM | > 100 µM | 40.4 µM |  | > 100 µM | > 100 µM | > 100 µM | > 100 µM | > 100 µM | > 100 µM
Cc1ccnc2nc(N)ccc12 | > 100 µM | > 100 µM | > 100 µM |  | > 100 µM | > 100 µM | > 100 µM | > 100 µM | > 100 µM | > 100 µM
Cc1c2c(cc3c1C(=O)C(=O)C1=C3OC[C@@H]1C)C(C)(C)CCC2 | 28.1 µM |  | 46.1 µM | 61.2 µM | 52.5 µM | 41.9 µM | 34.4 µM | 49.3 µM | 34.5 µM | 
O=C(C#Cc1ccccc1)N1c2ccccc2CC1c1c[nH]c2ccccc12 (stereo not drawn) | 42.3 µM | 43.2 µM | > 100 µM | 32.5 µM | 27.5 µM | 37.6 µM | 35.8 µM | > 100 µM | 49 µM | 
Nc1ccc(Nc2cc(=O)[nH]c(=O)[nH]2)cc1 | > 100 µM | > 100 µM |  |  | > 100 µM |  | > 100 µM | > 100 µM | > 100 µM | > 100 µM
COc1ccc(C2OCCN2C)cc1 (stereo not drawn) | > 100 µM | > 100 µM | > 100 µM | > 100 µM | > 100 µM | > 100 µM | > 100 µM | > 100 µM | > 100 µM | 
COC(=O)[C@@](C)(COC(=O)C(C)(C)C)NC(=O)OC(C)(C)C | > 100 µM | > 100 µM | > 100 µM |  | > 100 µM | > 100 µM | > 100 µM | > 100 µM | > 100 µM | > 100 µM
COc1ccc2nc3c(c(NCCCN(C)C)c2c1)CCCC3 | 24.3 µM | 27.2 µM | 39.6 µM | 21.1 µM | 36.4 µM | 26.9 µM | 30.1 µM | 48.8 µM | 8.3 µM | 
O=C1Nc2cc([N+](=O)[O-])c(Br)cc2C1=O | > 100 µM | 43.3 µM | 36.2 µM | 43.1 µM | 31.6 µM | 52 µM |  |  | 55.7 µM | 
CC(=O)OC12c3ccccc3C(c3ccccc31)C1C(=O)N(c3ccccn3)C(=O)C12 (stereo not drawn) |  | > 100 µM | 57.9 µM |  | > 100 µM | > 100 µM | > 100 µM | > 100 µM | > 100 µM | > 100 µM
CC1(C)C2CCC3(OCCO3)C1C(O)C2 (stereo not drawn) | > 100 µM | > 100 µM | > 100 µM | > 100 µM | > 100 µM | > 100 µM | > 100 µM | > 100 µM | > 100 µM | 
